*1 amine or outer side, *2 acyl side, *3 side chain or, on linkers, in order; H or OH if unused. Where a SMILES comes first, the peptide text is derived from it. Bridges are numbered along the chain shown (N, C = ends). [ ]: non-standard residue; d: D form. The star is where a group is joined. X22 = O=C([C@H](Cc1ccc(C(F)(F)F)cc1)N(CC1CCCC1)[*:1])[*:2]; X39 = CC(C)CCN([C@@H](Cc1ccc(C(F)(F)F)cc1)C(=O)[*:2])[*:1]; hPhe(3-Cl-4-CF3) = N[C@@H](CCc1ccc(C(F)(F)F)c(Cl)c1)C(=O)O; X37 = O=C([C@H](Cc1ccc(C(F)(F)F)cc1)N(CC1CCC1)[*:1])[*:2]; X40 = CC(C)CN([C@@H](Cc1ccc(C(F)(F)F)cc1)C(=O)[*:2])[*:1]; X27 = O=C([C@H](Cc1ccc(C(F)(F)F)cc1)N(CC1CC1)[*:1])[*:2]; X17 = CCCCN([C@@H](Cc1ccc(C(F)(F)F)cc1)C(=O)[*:2])[*:1]; NMeGly(cPent) = CN[C@H](C(=O)O)C1CCCC1; NMeD = CN[C@@H](CC(=O)O)C(=O)O; NMeL = CN[C@@H](CC(C)C)C(=O)O; Morpholide = C1CN(*)CCO1; Ac5c = NC1(C(=O)O)CCCC1; Sar = CNCC(=O)O
Tests used:
[1] = target: GDP-bound NRAS wild-type protein (Homo sapiens, UniProt P01111); assay: Binding to NRAS by surface plasmon resonance (SPR), Single Cycle Kinetics; settings: SPR, GDP-bound NRAS wild-type protein vs GDP-bound KRAS wild-type protein
Chain of GDP-bound NRAS wild-type protein (P01111 whole entry): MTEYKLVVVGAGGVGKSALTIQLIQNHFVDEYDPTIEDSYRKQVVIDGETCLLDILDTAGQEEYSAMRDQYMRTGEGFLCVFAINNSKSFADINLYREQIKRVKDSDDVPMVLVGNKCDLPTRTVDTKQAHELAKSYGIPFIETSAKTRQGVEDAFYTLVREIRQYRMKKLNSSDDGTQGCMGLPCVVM

[2] = target: GDP-bound KRAS wild-type protein (Homo sapiens, UniProt P01116); assay: Binding to KRAS by surface plasmon resonance (SPR), Single Cycle Kinetics; settings: SPR Single Cycle Kinetics, GDP-bound KRAS wild-type protein, 1:1 binding model; read-out: KRAS KD
Chain of GDP-bound KRAS wild-type protein (P01116 whole entry): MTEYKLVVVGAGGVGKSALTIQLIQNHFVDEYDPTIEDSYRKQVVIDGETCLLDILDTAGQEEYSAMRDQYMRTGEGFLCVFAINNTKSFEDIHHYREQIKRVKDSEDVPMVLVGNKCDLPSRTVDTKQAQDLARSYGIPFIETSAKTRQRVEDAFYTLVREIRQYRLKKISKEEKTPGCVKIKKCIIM

[3] = target: GDP-bound HRAS wild-type protein (Homo sapiens, UniProt P01112); assay: Binding to HRAS by surface plasmon resonance (SPR), Single Cycle Kinetics; settings: SPR, GDP-bound HRAS wild-type protein vs GDP-bound KRAS wild-type protein
Chain of GDP-bound HRAS wild-type protein (P01112 whole entry): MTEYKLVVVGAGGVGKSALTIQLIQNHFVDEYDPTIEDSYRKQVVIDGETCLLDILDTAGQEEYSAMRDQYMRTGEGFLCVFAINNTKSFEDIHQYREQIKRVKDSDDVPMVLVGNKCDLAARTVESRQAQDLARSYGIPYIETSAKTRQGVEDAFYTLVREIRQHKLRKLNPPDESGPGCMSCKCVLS

Compound	NRAS/KRAS (ratio of KD value for NRAS to KD value for KRAS) [1]	Kd [2] [nM]	HRAS/KRAS (ratio of KD value for HRAS to KD value for KRAS) [3]
CCCCN1C(=O)CN(C)C(=O)CN(C)C(=O)[C@H]([C@@H](C)CC)NC(=O)[C@H](CC(C)C)N(C)C(=O)C[C@@H](C(=O)N2CCOCC2)N(C)C(=O)[C@H](C2CCCC2)N(C)C(=O)C2(CCCC2)NC(=O)[C@@H]2CCCN2C(=O)[C@H](CCc2ccc(C(F)(F)F)c(Cl)c2)NC(=O)CN(C)C(=O)[C@@H]1Cc1ccc(C(F)(F)F)cc1 [PP0120] ([NMeL]I[Sar][Sar][X17][Sar][hPhe(3-Cl-4-CF3)]P[Ac5c][NMeGly(cPent)][NMeD]-Morpholide; lactam N-11)	B (a compound having 3 or more and less than 10 is denoted as B)	0.19	C (A compound having a KD ratio of 0.1 or more and less than 3 is denoted as C)
CC[C@H](C)[C@@H]1NC(=O)[C@H](CC(C)C)N(C)C(=O)C[C@@H](C(=O)N2CCOCC2)N(C)C(=O)[C@H](C2CCCC2)N(C)C(=O)C2(CCCC2)NC(=O)[C@@H]2CCCN2C(=O)[C@H](CCc2ccc(C(F)(F)F)c(Cl)c2)NC(=O)CN(C)C(=O)[C@H](Cc2ccc(C(F)(F)F)cc2)N(CC(C)C)C(=O)CN(C)C(=O)CN(C)C1=O [PP0121] ([NMeL]I[Sar][Sar][X40][Sar][hPhe(3-Cl-4-CF3)]P[Ac5c][NMeGly(cPent)][NMeD]-Morpholide; lactam N-11)	C (A compound having a KD ratio of 0.1 or more and less than 3 is denoted as C)	2.1	C (A compound having a KD ratio of 0.1 or more and less than 3 is denoted as C)
CC[C@H](C)[C@@H]1NC(=O)[C@H](CC(C)C)N(C)C(=O)C[C@@H](C(=O)N2CCOCC2)N(C)C(=O)[C@H](C2CCCC2)N(C)C(=O)C2(CCCC2)NC(=O)[C@@H]2CCCN2C(=O)[C@H](CCc2ccc(C(F)(F)F)c(Cl)c2)NC(=O)CN(C)C(=O)[C@H](Cc2ccc(C(F)(F)F)cc2)N(CC2CC2)C(=O)CN(C)C(=O)CN(C)C1=O [PP0122] ([NMeL]I[Sar][Sar][X27][Sar][hPhe(3-Cl-4-CF3)]P[Ac5c][NMeGly(cPent)][NMeD]-Morpholide; lactam N-11)	C (A compound having a KD ratio of 0.1 or more and less than 3 is denoted as C)	0.32	C (A compound having a KD ratio of 0.1 or more and less than 3 is denoted as C)
CC[C@H](C)[C@@H]1NC(=O)[C@H](CC(C)C)N(C)C(=O)C[C@@H](C(=O)N2CCOCC2)N(C)C(=O)[C@H](C2CCCC2)N(C)C(=O)C2(CCCC2)NC(=O)[C@@H]2CCCN2C(=O)[C@H](CCc2ccc(C(F)(F)F)c(Cl)c2)NC(=O)CN(C)C(=O)[C@H](Cc2ccc(C(F)(F)F)cc2)N(CC2CCC2)C(=O)CN(C)C(=O)CN(C)C1=O [PP0123] ([NMeL]I[Sar][Sar][X37][Sar][hPhe(3-Cl-4-CF3)]P[Ac5c][NMeGly(cPent)][NMeD]-Morpholide; lactam N-11)	B (a compound having 3 or more and less than 10 is denoted as B)	0.83	C (A compound having a KD ratio of 0.1 or more and less than 3 is denoted as C)
CC[C@H](C)[C@@H]1NC(=O)[C@H](CC(C)C)N(C)C(=O)C[C@@H](C(=O)N2CCOCC2)N(C)C(=O)[C@H](C2CCCC2)N(C)C(=O)C2(CCCC2)NC(=O)[C@@H]2CCCN2C(=O)[C@H](CCc2ccc(C(F)(F)F)c(Cl)c2)NC(=O)CN(C)C(=O)[C@H](Cc2ccc(C(F)(F)F)cc2)N(CC2CCCC2)C(=O)CN(C)C(=O)CN(C)C1=O [PP0124] ([NMeL]I[Sar][Sar][X22][Sar][hPhe(3-Cl-4-CF3)]P[Ac5c][NMeGly(cPent)][NMeD]-Morpholide; lactam N-11)	C (A compound having a KD ratio of 0.1 or more and less than 3 is denoted as C)	3.5	C (A compound having a KD ratio of 0.1 or more and less than 3 is denoted as C)
CC[C@H](C)[C@@H]1NC(=O)[C@H](CC(C)C)N(C)C(=O)C[C@@H](C(=O)N2CCOCC2)N(C)C(=O)[C@H](C2CCCC2)N(C)C(=O)C2(CCCC2)NC(=O)[C@@H]2CCCN2C(=O)[C@H](CCc2ccc(C(F)(F)F)c(Cl)c2)NC(=O)CN(C)C(=O)[C@H](Cc2ccc(C(F)(F)F)cc2)N(CCC(C)C)C(=O)CN(C)C(=O)CN(C)C1=O [PP0126] ([NMeL]I[Sar][Sar][X39][Sar][hPhe(3-Cl-4-CF3)]P[Ac5c][NMeGly(cPent)][NMeD]-Morpholide; lactam N-11)	C (A compound having a KD ratio of 0.1 or more and less than 3 is denoted as C)	0.43	C (A compound having a KD ratio of 0.1 or more and less than 3 is denoted as C)

— patent US20240158446A1, “CYCLIC COMPOUND HAVING SELECTIVE INHIBITORY ACTION ON KRAS OVER HRAS AND NRAS” (CHUGAI SEIYAKU KABUSHIKI KAISHA, priority 2021, published 2024)
